This passage reports logD and Papp results from ChEMBL document CHEMBL1138393, “Structure-activity relationships of novel non-competitive mGluR1 antagonists: a potential treatment for chronic pain” (Bioorg Med Chem Lett, 2007).

Series [1] can be described thus: Lipophilicity, log D of the compound. Type of series: physicochemical. The note with it: octanol/water.
Series [2] can be described thus: Permeability in artificial membrane assessed as diffusion rate by PAMPA assay. Particulars: read-out: permeability. Type of series: ADME. For orientation: PAMPA measures passive passage across an artificial lipid membrane.

`CCN(C)c1cncc(C(=O)NC2Cc3ccccc3C2)n1` gave a log distribution coefficient (logD) in series [1] of 3.6.
The same measure, in the same setting: the figure for `CC(C)(CNC(=O)c1cnc(N2CCCCC2)cn1)c1ccccc1` is 4.5; for `CC(C)(CNC(=O)c1cncc(N2CCCCC2)n1)c1ccccc1` it is 4.4; for `CCCCN(C)c1cncc(C(=O)NC2CCCCCC2)n1` it is 3.8.
`CN(CCO)c1cncc(C(=O)NCC(C)(C)c2ccccc2)n1`: in series [1], the logD came out at 2.7.
Compound `O=C(NCC1CC1)c1cncc(NCCc2cccc(O)c2)n1` came in with a logD in series [1] of 3.2.
On to `CN(CCC#N)c1cnc(C(=O)NCC(C)(C)c2ccccc2)cn1`, for which the logD in series [1] is 2.9.
The compound `CC(CN(C)C)N(C)c1cnc(C(=O)NCC(C)(C)c2ccccc2)cn1` (stereo not drawn) had a logD in series [1] of 2.
For the compound `CC(C)(CNC(=O)c1cncc(-c2ccccc2)n1)c1ccccc1`, in series [1], the pH-dependent lipophilicity (logD) was found to be 2.6.
On the same count and under the same terms, the figure for `C[C@H]1CC[C@H](NC(=O)c2cnc(N3CCCCC3)cn2)CC1` is 4.4.
In turn, `O=C(NC1CCCCCC1)c1cnc(N2CCCCC2)cn1` displayed a logD in series [1] of 3.9.
As to `CC(C)(CNC(=O)c1cncc(N[C@@H](CO)c2ccccc2)n1)c1ccccc1`, in series [1], the logD stood at 3.6.
In series [1], `CC(C)(CNC(=O)c1cnc2ccccc2n1)c1ccccc1` had a logD of 4.
Regarding `C[C@H]1CC[C@H](NC(=O)c2cnc(N3CCC(CO)CC3)cn2)CC1`, the Papp in series [2] turned out to be 25.5 ×10⁻⁶ cm/s. The same compound registered a logD in series [1] of 3.3.
In series [1], `CC(C)(CNC(=O)c1cnc(N2CCC(CO)CC2)cn1)c1ccccc1` returned a logD of 3.5.
On the same count and under the same terms, for `O=C(NCC1CC1)c1cncc(N2CCCN(Cc3ccccc3)CC2)n1` the value was 3; for `CC(C)(CNC(=O)c1cnc(-c2ccccc2)cn1)c1ccccc1`, 3.4.

As a reminder, the logD is lipophilicity at a set pH, counting ionised and neutral species. Higher therefore signals higher lipophilicity.
